Assay results taken from paper PMC8112869, “Therapeutic inhibition of keratinocyte TRPV3 sensory channel by local anesthetic dyclonine” (eLife, 2021).

What was measured:
TRPV3 (G573S) = target: T1, TRPV3 (G573S) (Mus musculus, UniProt Q8K424, G573S); experiment: Whole-cell currents of TRPV3 (G573S) expressed in T-Rex 293 cells; assay type: cell-based
T1 construct: expressed in transfected cells; host or cells: T-Rex 293
Source text: The WT mouse TRPV3 (mTRPV3), human TRPV3 (hTRPV3), rat TRPV1, rat TRPV2, rat TRPM8, and mouse TRPA1 cDNAs were generously provided by Dr. Feng Qin (State University of New York at Buffalo, Buffalo, USA). The GFP-mTRPV3 WT and the mutants (mTRPV3-G573S and mTRPV3-G573C) in pcDNA4/TO vector were gifts from Dr. Michael X Zhu (The University of Texas Health Science Center at Houston, Houston, USA). The WT fTRPV3 was kindly provided by Dr. Makoto Tominaga (Department of Physiological Sciences, SOKENDAI, Okazaki, Japan). All mutations were made using the overlap-extension polymerase chain reaction method as previously described ([Tian et al., 2019]). The resulting mutations were then verified by DNA sequencing. […]
Conventional whole-cell and excised patch-clamp recording methods were used. […] For a subset of recordings, currents were amplified using an Axopatch 200B amplifier (Molecular Devices, Sunnyvale, CA) and recorded through a BNC-2090/MIO acquisition system (National Instruments, Austin, TX) using QStudio developed by Dr. Feng Qin at State University of New York at Buffalo. […] As determined by the conductance tests, the solution around a patch under study was fully controlled by the application of a flow rate of 100 μl/min or greater. […]

[1] = system: mouse dorsal root ganglia (DRG) and trigeminal ganglia (TG) neurons; experiment: Current-clamp recording of mouse DRG and TG neurons; assay type: cell-based; details: dyclonine 10 μM

T1 sequence (Q8K424 whole entry G573S): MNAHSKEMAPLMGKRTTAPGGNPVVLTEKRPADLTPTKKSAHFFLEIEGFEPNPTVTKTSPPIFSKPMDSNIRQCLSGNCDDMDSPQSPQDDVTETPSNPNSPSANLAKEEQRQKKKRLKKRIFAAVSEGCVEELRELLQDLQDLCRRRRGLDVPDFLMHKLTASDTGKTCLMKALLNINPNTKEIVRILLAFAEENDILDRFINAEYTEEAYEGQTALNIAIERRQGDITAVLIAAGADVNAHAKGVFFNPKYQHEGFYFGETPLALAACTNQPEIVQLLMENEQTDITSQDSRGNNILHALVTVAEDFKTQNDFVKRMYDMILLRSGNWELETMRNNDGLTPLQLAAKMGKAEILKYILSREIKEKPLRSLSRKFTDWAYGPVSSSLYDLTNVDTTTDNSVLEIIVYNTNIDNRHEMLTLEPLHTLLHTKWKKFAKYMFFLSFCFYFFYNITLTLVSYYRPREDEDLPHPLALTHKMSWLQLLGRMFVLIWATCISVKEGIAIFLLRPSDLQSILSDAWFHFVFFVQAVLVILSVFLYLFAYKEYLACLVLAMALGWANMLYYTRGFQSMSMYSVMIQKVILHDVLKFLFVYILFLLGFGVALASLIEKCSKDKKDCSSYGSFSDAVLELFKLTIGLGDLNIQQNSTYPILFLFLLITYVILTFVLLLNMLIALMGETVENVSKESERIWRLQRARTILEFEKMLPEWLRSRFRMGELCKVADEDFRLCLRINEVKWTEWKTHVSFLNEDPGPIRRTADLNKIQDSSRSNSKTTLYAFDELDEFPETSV

CCCCOc1ccc(C(=O)CCN2CCCCC2)cc1 [dyclonine]
reduction of spontaneous activities (TRPV3 (G573S); 10 μM dyclonine, –60 mV, leak subtracted with 20 μM RR): 74% ± 3%
300 μM 2-APB-evoked responses, of control level (TRPV3 (G573S); presence of dyclonine): 10% ± 2%
effect on electrophysiological responses ([1]; DRG and TG neurons): little effect
resting membrane potential (RMP) ([1]; DRG neurons): –45 ± 0.9 mV
resting membrane potential (RMP) ([1]; TG neurons): –47.2 ± 1.9 mV
